From patent US20060014231A1, “Methods and compositions to promote bone homeostasis” (priority 2004, published 2006) come the findings set out here.

One assay deals with RUNX2. Description: DN-RUNX2 assay: interference with up-regulation of AP activity in MPCs. It counts as cell-based, human. The following applies: Ad-NR1H3 + T0901317 plus Ad-DN-RUNX2 versus Ad-luciferase, 6 days post infection. The source says: Since the osteogenic activity of BMP2 is known to work through RUNX2, Ad-BMP2 and Ad-DN-RUNX2 viruses are used to develop the DN-RUNX2 assay. The human full-length RUNX2 cDNA is obtained by RT-PCR from total RNA extracted from MPCs. The 5′ part of the cDNA encoding amino acids 1-214 is obtained by PCR from the cloned RUNX2 cDNA and subcloned in an adenoviral adapter plasmid. The identity of the cloned fragment is verified by sequencing. This plasmid is used to generate an adenoviral stock, as described in WO 9964582.
MPCs are seeded at 1000 cells/well in a 384 well plate and infected the next day with adenoviruses encoding hCAR (MOI 250), Ad-BMP2 (MOIs 6000, 2000, 666) and one of Ad-DN-RUNX2 or Ad-luciferase (MOIs 2000 or 666). Alkaline phosphatase activity is read 6 days post infection.
The DN-RUNX2 assay is used to test the involvement of RUNX2 in the up-regulation of AP activity by NR5A2, NR1H3, and ESRRG. MPCs are seeded at 1000 cells/well in a 384 well plate and are infected the next day with adenoviruses encoding hCAR (MOI 250), Ad-BMP2, Ad-ESRRG, Ad-NR5A2, Ad-NR1H3 (MOIs 6000, 2000, 666) and one of Ad-DN-RUNX2 or Ad-luciferase (MOI 1000 or MOIs 2000 and 666) (see FIG. 19(C)). Alkaline phosphatase activity is read 6 days post infection and raw data are analysed.

A further assay deals with primary human MPCs. Description: Mineralization assay (Alizarin RedS / Von Kossa stain). It counts as cell-based. The following applies: MPCs with NR1H3 and ligand. As to the method: On day one, primary human MPCs are seeded in a 6 well plate (Costar or Nunc) at a density of 50,000 to 250,000 cells per well, typically at 100,000 cells per well. MPCs are co-infected one day later with AdC15-hCAR (MOI 750) and Ad-control (eGFP or BMP2) or hit-virus (Ad5) (at MOIs between 250 and 20,000, typically at MOIs 5000 and 2500). For Ad-GPCR or Ad-NHR experiments, cells can additionally be treated with specific ligands. These are added at the EC50 concentration and at concentrations 5-10 times higher and lower. Ligands are added 2-3 times per week. Medium supplemented with 100 μg/ml L-ascorbate and 10 mM beta-glycerophosphate, is refreshed 2 times a week. 20 to 30 days after the start of the experiment, cells are stained with Von Kossa stain or with Alizarin RedS stain.
The Alizarin RedS staining is carried out as follows: cells are washed once with PBS, fixed with 10% paraformaldehyde for 45 minutes at 4° C., and washed 2 times with PBS. Cells are incubated with 40 mM aqueous Alizarin RedS solution, pH 4.1-4.3 for 10 minutes followed by 5 washes with distilled water. Staining is evaluated and photographed using white light.

Another assay addresses T1, NR1H2 (Homo sapiens, UniProt P55055).
T1 construct: amplification of the complete open reading frame from ATG start codon to the stop codon of drugable genes; expressed in transfected cells; host or cells: primary human bone-marrow MPCs, adenoviral transduction (Ad5-NR1H2 with Ad-hCAR)
T1 sequence (P55055 1-460): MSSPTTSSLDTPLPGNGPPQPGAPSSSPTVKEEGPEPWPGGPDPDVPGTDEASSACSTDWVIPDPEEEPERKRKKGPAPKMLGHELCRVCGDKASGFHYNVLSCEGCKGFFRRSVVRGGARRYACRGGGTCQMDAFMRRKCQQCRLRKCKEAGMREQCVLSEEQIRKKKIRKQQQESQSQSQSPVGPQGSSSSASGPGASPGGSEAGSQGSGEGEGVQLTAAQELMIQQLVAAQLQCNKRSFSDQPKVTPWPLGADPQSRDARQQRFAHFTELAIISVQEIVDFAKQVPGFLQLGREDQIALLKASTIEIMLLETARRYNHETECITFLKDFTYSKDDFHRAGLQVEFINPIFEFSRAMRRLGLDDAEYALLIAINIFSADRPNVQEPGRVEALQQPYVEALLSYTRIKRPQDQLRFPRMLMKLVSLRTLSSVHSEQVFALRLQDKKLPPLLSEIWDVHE
In words: Alkaline phosphatase (AP) assay in MPCs infected with Ad-NR1H2 and treated with ligand. It is filed as cell-based. Conditions: MPCs infected with Ad-NR1H2, increasing ligand concentrations, MUP readout after 7, 10 and 13 days. As to the method: (§1) After 6 days, medium is removed and replaced with fresh medium containing the same concentrations of the compound T0901317. Readouts of AP activity are performed at several time points after the start of the experiment, typically after 7, 10 and 13 days. Up-regulation of alkaline phosphatase activity is read as follows: medium is removed from the monolayers, 15 μl MUP is added to each well, the plates are incubated for 15 min at 37° C. and then read for AP activity using a fluorescence plate reader (Fluostar, BMG).
as §1, with “MPCs are seeded on day 0 at 1000 cells per well of a 384 well plate and co-infected the next day using AdC51-hCAR (MOI 250) and different MOIs of Ad5-NR1H2 (MOI 2000, 666). On day 1, 9 concentrations (1.52E-9M, 4.57E-9M, 1.37E-8M, 4.12E-8M, 1.23E-7M, 3.7E-7M, 1.11E-6M, 3.33E-6M, 1E-5M) of the compound GW3965 with fixed vehicle concentration (DMSO at final concentration of 0.161%) are added to the wells. After” for “After”, “GW3965.” for “T0901317.”
After 6 days, medium is removed and replaced with fresh medium containing the same concentrations of the compound APD. Readouts of AP activity are performed at several time points after the start of the experiment, typically after 7, 10 and 13 days. Up-regulation of alkaline phosphatase activity is read as follows: medium is removed from the monolayers, 15 μl MUP is added to each well, the plates are incubated for 15 min at 37° C. and then read for AP activity using a fluorescence plate reader (Fluostar, BMG).

Consider `O=S(=O)(c1ccccc1)N(CC(F)(F)F)c1ccc(C(O)(C(F)(F)F)C(F)(F)F)cc1` [T0901317], for which the “up-regulation of AP activity induced by NR1H3 in the presence of T0901317, under overexpression of DN-RUNX2” value with RUNX2 is given as “significantly reduces”. For the same molecule, the mineralization result with primary human MPCs is “score well”. Also, the “up-regulation of alkaline phosphatase (AP) activity” value on NR1H2 was “dose-response relation”.
